Like-named read-outs stand apart in the source and are kept apart here. Starred links: 1 amine or outer side, 2 acyl side, 3 side chain; linkers in the order of their positions; H or OH if unused. Non-standard residues stand in square brackets, D forms with d. Residues, ends and D or L forms follow the SMILES beside them. Groups on a side chain read outwards from the residue. No end group written: not given here. *: point of attachment. X1 = O=C(O)CCCCCCCCCCCCCCCCCCC(=O)N[C@@H](CCC(=O)NCCOCCOCCOCCOCCOCC(=O)*)C(=O)O; C20 diacid = O=C(O)CCCCCCCCCCCCCCCCCCC(=O)*; γGlu = O=C(O)[C@H](CCC(=O)[*:2])N[*:1]; AEEA = NCCOCCOCC(=O)O; Aib = CC(C)(N)C(=O)O
Tests used:
GcgR = biological target: T1, GcgR (Homo sapiens, UniProt P47871); experiment: Gcg activity determination (cAMP, chemiluminescence, stable cell line); assay type: cell-based; conditions: CHO-K1 cell line stably expressing GcgR; OXM3 as reference
T1 construct: expressed in transfected cells; host or cells: CHO-K1
T1 sequence (P47871 26-477, species assumed): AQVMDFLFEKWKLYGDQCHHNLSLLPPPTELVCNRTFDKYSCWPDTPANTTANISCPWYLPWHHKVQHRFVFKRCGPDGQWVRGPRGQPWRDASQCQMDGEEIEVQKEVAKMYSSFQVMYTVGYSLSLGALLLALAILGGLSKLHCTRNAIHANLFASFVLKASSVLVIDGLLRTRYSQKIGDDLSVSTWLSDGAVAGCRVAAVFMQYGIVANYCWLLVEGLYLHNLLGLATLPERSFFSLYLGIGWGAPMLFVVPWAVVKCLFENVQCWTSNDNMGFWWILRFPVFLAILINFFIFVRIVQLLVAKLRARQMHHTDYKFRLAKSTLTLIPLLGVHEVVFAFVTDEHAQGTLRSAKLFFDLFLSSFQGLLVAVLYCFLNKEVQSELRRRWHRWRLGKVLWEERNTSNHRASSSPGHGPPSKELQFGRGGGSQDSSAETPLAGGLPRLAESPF
Method: (§1) GcgR activates the intracellular adenylate cyclase pathway under the stimulation of its specific agonist, to increase the cAMP level and ultimately lead to the production and release of insulin. The stably cell line expressing GcgR was stimulated by the test substance to rapidly increase the intracellular cAMP level. The relative light units (RLU) in the cells after the stimulation by each dose of agonists were determined by the chemiluminescence method, and then the EC50 of the agonist was calculated. This activity determination method is currently a common determination method for Geg receptor agonist activity at home and abroad.
A CHO-K1 cell line stably expressing GcgR was adopted. The cells were stimulated with different concentrations of agonists, and the relative light units (RLU) after the stimulation of cells by each dose of agonists were determined. Using OXM3 as a reference, the relative biological activity of the agonist was obtained.

in vivo [1] = experiment: in vivo; set-up: species or system cynomolgus monkeys; conditions: male, cynomolgus monkey, sc, 0.2 mg/kg
Method: The experimental animals were cynomolgus monkeys, and two male cynomolgus monkeys in each group were subcutaneously administrated the compound at a dose of 0.2 mg/kg. The venous blood samples were collected before drug administration (0 h), and 1 h, 2 h, 3 h, 4 h, 8 h, 12 h, 18 h, 24 h, 48 h, 96 h, 144 h and 168 h after administration, respectively. The plasma samples were separated by centrifugation. The blood drug concentrations of the corresponding compounds in the plasma samples were determined by liquid chromatography-mass spectrometry.

in vivo [2] = conditions: human
GLP-1R = biological target: T2, GLP-1R (Homo sapiens, UniProt P43220); experiment: Determination of GLP-1 activity (cAMP, chemiluminescence, stable cell line); assay type: cell-based; conditions: CHO-K1 cell line stably expressing GLP-1R; OXM3 as reference substance
T2 construct: expressed in transfected cells; host or cells: CHO-K1
T2 sequence (P43220 24-463, species assumed): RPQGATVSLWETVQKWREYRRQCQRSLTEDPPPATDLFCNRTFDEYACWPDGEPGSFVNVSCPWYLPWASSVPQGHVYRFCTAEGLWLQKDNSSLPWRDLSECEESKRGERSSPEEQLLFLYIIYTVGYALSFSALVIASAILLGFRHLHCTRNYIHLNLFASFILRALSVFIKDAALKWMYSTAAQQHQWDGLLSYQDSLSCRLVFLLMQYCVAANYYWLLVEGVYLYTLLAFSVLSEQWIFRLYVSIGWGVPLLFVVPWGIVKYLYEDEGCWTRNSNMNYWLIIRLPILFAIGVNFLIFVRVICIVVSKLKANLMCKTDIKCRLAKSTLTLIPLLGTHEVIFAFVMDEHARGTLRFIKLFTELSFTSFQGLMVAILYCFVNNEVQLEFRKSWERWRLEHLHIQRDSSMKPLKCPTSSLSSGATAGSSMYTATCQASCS
Method: as §1, with “GLP-1R” for “GcgR”, “stable” for “stably”, “after” for “after the”, “the test substance” for “agonists”, “GLP-1” for “Geg”
A CHO-K1 cell line that stably expresses GLP-IR was adopted, and the cells were stimulated with different concentrations of agonists. The relative light units after stimulation of the cells by each dose of agonists were measured. Using OXM3 as a reference substance, the relative biological activity of each agonist was obtained.

[3] = human, in vivo; cited from earlier work

Row | Compound | Biological activity (%) (GcgR) | half-life (in vivo [1]) [h] | half-life (in vivo [2]) [h] | Relative biological activity (GLP-1R) [%] | half-life [3] [h]
1 | CC(C)C[C@H](NC(=O)[C@H](CC(C)C)NC(=O)[C@H](Cc1c[nH]c2ccccc12)NC(=O)[C@H](CCC(=O)O)NC(=O)[C@@H](NC(=O)[C@H](Cc1ccccc1)NC(=O)[C@H](CCC(=O)O)NC(=O)[C@H](CCCCNC(=O)COCCOCCOCCOCCOCCNC(=O)CC[C@H](NC(=O)CCCCCCCCCCCCCCCCCCC(=O)O)C(=O)O)NC(=O)[C@H](C)NC(=O)[C@H](CCCCN)NC(=O)[C@H](CCCCN)NC(=O)[C@H](CCC(=O)O)NC(=O)[C@H](CC(=O)O)NC(=O)[C@H](CC(C)C)NC(=O)[C@H](Cc1ccc(O)cc1)NC(=O)[C@H](CCCCN)NC(=O)[C@H](CO)NC(=O)[C@H](Cc1ccc(O)cc1)NC(=O)[C@H](CC(=O)O)NC(=O)[C@H](CO)NC(=O)[C@@H](NC(=O)[C@H](Cc1ccccc1)NC(=O)[C@@H](NC(=O)CNC(=O)[C@H](CCC(N)=O)NC(=O)C(C)(C)NC(=O)[C@@H](N)Cc1c[nH]cn1)[C@@H](C)O)[C@@H](C)O)C(C)C)C(=O)N[C@@H](CCC(=O)O)C(=O)NCC(=O)NCC(=O)N1CCC[C@H]1C(=O)N[C@@H](CO)C(=O)N[C@@H](CO)C(=O)NCC(=O)N[C@@H](C)C(=O)N1CCC[C@H]1C(=O)N1CCC[C@H]1C(=O)N1CCC[C@H]1C(=O)N[C@@H](CO)C(N)=O [Compound 2, His-Aib-Gln-Gly-Thr-Phe-Thr-Ser-Asp-Tyr-Ser-Lys-Tyr-Leu-Asp-Glu-Lys-Lys-Ala-Lys(PEG5CH2CO-γGlu-eicosanedioic acid)-Glu-Phe-Val-Glu-Trp-Leu-Leu-Glu-Gly-Gly-Pro-Ser-Ser-Gly-Ala-Pro-Pro-Pro-Ser-NH2] (H-H[Aib]QGTFTSDYSKYLDEKKAK(X1)EFVEWLLEGGPSSGAPPPS-NH2) | 86.9 | 140 | ~280 | 259.9 | 
2 | His-Aib-Gln-Gly-Thr-Phe-Thr-Ser-Asp-Tyr-Ser-Lys-Tyr-Leu-Asp-Glu-Lys-Lys-Ala-Lys(AEEA-AEEA-γGlu-eicosanedioic acid)-Glu-Phe-Val-Glu-Trp-Leu-Leu-Glu-Gly-Gly-Pro-Ser-Ser-Gly-NH2 (H[Aib]QGTFTSDYSKYLDEKKAK([AEEA-AEEA-γGlu-C20 diacid])EFVEWLLEGGPSSG-NH2) [OXM3] |  |  |  |  | 120

Source: US20260055154A1, “LONG-ACTING DUAL-AGONIST COMPOUND” (CHENGDU AODA BIOTECHNOLOGY CO., LTD, priority 2022, published 2026)
